Earlier results on five compounds are cited in patent US20010034023A1, “Gene sequence variations with utility in determining the treatment of disease, in genes relating to drug processing” (priority 1999, published 2001).

Where a name gives a salt, the structure may show the parent alone.

For data set [1] the following is noted: PDR.
For data set [2] the following is noted: high dose.
The test system of data set [3] is hepatitis C virus infection.
Assay in data set [4]: not given
This is another data set of the same source.

The mark [5] stands for this setting: Alzheimer's patients receiving Cognex.

As to `Nc1c2c(nc3ccccc13)CCCC2` [Cognex, tacrine hydrochloride], the “patients showing no change or minimal worsening of their disease” value in data set [1] (Alzheimer's disease patients receiving Cognex) is “about 45%”. Besides, in data set [1] (setting [5]), the patients minimally improved result is listed as “About 58%” and the patients much improved result is listed as “about 2%”.
In the case of `CC(=O)Nc1ccc(O)cc1` [Acetominophen], in data set [2], the “dose required for significant liver injury to occur” value was 10-15 grams.
As to interferon alpha, in data set [3], the “patients in whom viral infection is completely and permanently eliminated” value is on record as “less than a quarter of patients”; the “patients receiving virtually no benefit” value was “Nearly half of patients”.
Take `NNC(=O)c1ccncc1` [INH, Isoniazid]: the “persons in whom subclinical liver injury occurs” value (persons taking INH) is on record as 10-20%. Besides, the “hepatotoxicity in slow acetylators” value (slow acetylators) is recorded as “more hepatotoxic”.
Turning to `O=c1[nH]cc(F)c(=O)[nH]1` [5-fluorouracil], the “patients with an objective response to the drug” value in data set [4] (advanced colorectal cancer) is listed as 20-40%. Also, the “patients with a complete response (complete tumor disappearance)” value in data set [4] (advanced colorectal cancer, of the objective responders) is recorded as 1-5%. For the same compound, in data set [4] (up to, depending on the regimen), the “patients suffering serious gastrointestinal or hematopoietic toxicity” value is 20-30%.
